Tests used:
Diabrotica balteata = Diabrotica balteata (Corn Root Worm); type: in vivo; settings: 96 h, application rate of 200 ppm, sprayed maize sprouts, L2 larvae, 4 days after infestation, read-out: effect in at least one of the two categories (mortality or growth inhibition)
Experimental: Maize sprouts placed onto an agar layer in 24-well microtiter plates were treated with aqueous test solutions prepared from 10,000 ppm DMSO stock solutions by spraying. After drying, the plates were infested with L2 larvae (6 to 10 per well). The samples were assessed for mortality and growth inhibition in comparison to untreated samples 4 days after infestation.

Euschistus heros = Euschistus heros (Neotropical Brown Stink Bug); type: in vivo; settings: 120 h, application rate of 200 ppm, sprayed soybean leaves, N2 nymphs, 5 days after infestation, read-out: effect in at least one of the two categories (mortality or growth inhibition)
Experimental: Soybean leaves on agar in 24-well microtiter plates were sprayed with aqueous test solutions prepared from 10,000 ppm DMSO stock solutions. After drying the leaves were infested with N2 nymphs. The samples were assessed for mortality and growth inhibition in comparison to untreated samples 5 days after infestation.

[1] = test system: Frankliniella occidentalis; assay: Frankliniella occidentalis (Western Flower Thrips): Feeding/Contact Activity; type: in vivo; settings: foliar, 168 h, application rate of 200 ppm, sprayed sunflower leaf discs, population of mixed ages, 7 days after infestation
Experimental: (§1) Sunflower leaf discs were placed on agar in 24-well microtiter plates and sprayed with aqueous test solutions prepared from 10,000 DMSO stock solutions. After drying the leaf discs were infested with a Frankliniella population of mixed ages. The samples were assessed for mortality 7 days after infestation.

Myzus persicae [2] = assay: Myzus persicae (Green Peach Aphid): Feeding/Contact Activity; type: in vivo; settings: foliar, 144 h, application rate of 200 ppm, sprayed sunflower leaf discs, aphid population of mixed ages, 6 days after infestation
Experimental: Sunflower leaf discs were placed onto agar in a 24-well microtiter plate and sprayed with aqueous test solutions prepared from 10,000 ppm DMSO stock solutions. After drying, the leaf discs were infested with an aphid population of mixed ages. The samples were assessed for mortality 6 days after infestation.

Plutella xylostella = Plutella xylostella (Diamond Back Moth); type: in vivo; settings: 120 h, application rate of 200 ppm, artificial diet, L2 larvae, 5 days after infestation, read-out: effect in at least one of the two categories (mortality or growth inhibition)
Experimental: 24-well microtiter plates with artificial diet were treated with aqueous test solutions prepared from 10,000 ppm DMSO stock solutions by pipetting. After drying, the plates were infested with L2 larvae (10 to 15 per well). The samples were assessed for mortality and growth inhibition in comparison to untreated samples 5 days after infestation.

Spodoptera littoralis [3] = assay: Spodoptera littoralis (Egyptian Cotton Leaf Worm), sprayed cotton leaf discs; type: in vivo; settings: foliar, 72 h, application rate of 200 ppm, L1 larvae, 3 days after infestation
In short: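 Cotton leaf discs on agar sprayed with aqueous dilutions of 10,000 ppm DMSO stocks, dried, then infested with five L1 larvae. Mortality, anti-feeding and growth inhibition scored against untreated discs 3 days after infestation. Control recorded when any one category exceeds the untreated sample.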

Tetranychus urticae = Tetranychus urticae (Two-Spotted Spider Mite): Feeding/Contact Activity; type: in vivo; settings: foliar, 192 h, application rate of 200 ppm, sprayed bean leaf discs, mixed population (mobile stages), 8 days after infestation
Experimental: Bean leaf discs on agar in 24-well microtiter plates were sprayed with aqueous test solutions prepared from 10,000 ppm DMSO stock solutions. After drying the leaf discs were infested with a mite population of mixed ages. The samples were assessed for mortality on mixed population (mobile stages) 8 days after infestation.

Aedes aegypti = assay: Aedes Aegypti (Yellow Fever Mosquito); type: in vivo; settings: 200 ppm in ethanol, dry deposit in 12 well plates, adult females, after 48 h and/or 24 h
Experimental: Test solutions, at an application rate of 200 ppm in ethanol, were applied to 12 well tissue culture plates. Once the deposits were dry, five, two to five day old adult female Aedes aegypti were added to each well, and sustained with a 10% sucrose solution in a cotton wool plug. Assessment of knockdown was made one hour after introduction, and mortality was assessed at 24 and 48 hours after introduction.

Bemisia tabaci = Bemisia tabaci (Cotton White Fly): Feeding/Contact Activity; type: in vivo; settings: foliar, 144 h, application rate of 200 ppm, sprayed cotton leaf discs, adult white flies, 6 days after incubation
Experimental: Cotton leaf discs were placed on agar in 24-well microtiter plates and sprayed with aqueous test solutions prepared from 10,000 ppm DMSO stock solutions. After drying the leaf discs were infested with adult white flies. The samples were checked for mortality 6 days after incubation.

Spodoptera littoralis [4] = assay: Spodoptera littoralis (Egyptian Cotton Leaf Worm), uptake by lettuce roots from agar; type: in vivo; settings: 144 h, test rate of 12.5 ppm, mixed with agar, absorbed by lettuce roots, Spodoptera eggs, 6 days after infestation, read-out: effect in at least one of the three categories (mortality, anti-feeding, or growth inhibition)
In short: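 Compound from 10,000 ppm DMSO stock mixed into agar; lettuce seeds grew 7 days, taking compound up via roots into the lid plate. Cut leaves infested with Spodoptera eggs; mortality, anti-feedant effect and growth inhibition scored against untreated samples 6 days after infestation.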

Thrips tabaci = Thrips tabaci (Onion Thrips) Feeding/Contact Activity; type: in vivo; settings: foliar, 144 h, application rate of 200 ppm, sprayed sunflower leaf discs, thrips population of mixed ages, 6 days after infestation
Experimental: as §1, with “10,000 ppm” for “10,000”, “thrips” for “Frankliniella”, “6” for “7”

Myzus persicae [5] = assay: Myzus persicae (Green Peach Aphid). Intrinsic Activity; type: in vivo; settings: 120 h, test rate of 12 ppm, mixed with sucrose solution, Parafilm, 5 days after infestation
Experimental: Test compounds prepared from 10,000 ppm DMSO stock solutions were applied by pipette into 24-well microtiter plates and mixed with sucrose solution. The plates were closed with a stretched Parafilm. A plastic stencil with 24 holes was placed onto the plate and infested pea seedlings were placed directly on the Parafilm. The infested plate was closed with a gel blotting paper and another plastic stencil and then turned upside down. The samples were assessed for mortality 5 days after infestation.

Row | Structure (SMILES) | effect mortality or growth inhibition at 200 ppm (Diabrotica balteata) [%] | percent effect (mortality or growth inhibition) at 200 ppm (Euschistus heros) [%] | mortality at 200 ppm [1] [%] | mortality at 200 ppm (Myzus persicae [2]) [%] | percent effect (mortality or growth inhibition) at 200 ppm (Plutella xylostella) [%] | percent control (mortality, anti-feeding effect or growth inhibition) at 200 ppm (Spodoptera littoralis [3]) [%] | mortality at 200 ppm (Tetranychus urticae) [%] | pest or weed control at 200 ppm (Aedes aegypti) [%] | melting point [°C] | mortality at 200 ppm (Bemisia tabaci) [%] | percent effect (mortality, anti-feeding or growth inhibition) at 12.5 ppm (Spodoptera littoralis [4]) [%] | mortality at 200 ppm (Thrips tabaci) [%] | mortality at 12 ppm (Myzus persicae [5]) [%]
1 | CCn1c(C(F)(F)F)cc2nc(-c3ncc(NC4CC4)cc3S(=O)(=O)CC)n(C)c2c1=O [Compound A1] | ≥ 80 | ≥ 80 | ≥ 80 | ≥ 80 | ≥ 80 | ≥ 80 | ≥ 80 | ≥ 80 |  |  |  |  | 
2 | CCn1c(C(F)(F)F)cc2nc(-c3ncc(N(C(=O)C4CC4)S(C)(=O)=O)cc3S(=O)(=O)CC)n(C)c2c1=O [Compound A21, N-[6-[5-ethyl-3-methyl-4-oxo-6-(trifluoromethyl)imidazo[4,5-c]pyridin-2-yl]-5-ethylsulfonyl-3-pyridyl]-N-methylsulfonyl-cyclopropanecarboxamide] |  |  |  |  |  |  |  |  | 232 to 234 |  |  |  | 
3 | CCS(=O)(=O)c1cc(Br)c(N)nc1-c1nc2cc(C(F)(F)F)n(C3CC3)c(=O)c2n1C [Compound A44, 2-(6-amino-5-bromo-3-ethylsulfonyl-2-pyridyl)-5-cyclopropyl-3-methyl-6-(trifluoromethyl)imidazo[4,5-c]pyridin-4-one] | ≥ 80 | ≥ 80 |  | ≥ 80 | ≥ 80 | ≥ 80 |  |  |  | ≥ 80 | ≥ 80 | ≥ 80 | 
4 | CCSc1cc(NC(=O)C2CC2)cnc1-c1nc2cc(C(F)(F)F)n(CC)c(=O)c2n1C [Compound A59, N-[6-[5-ethyl-3-methyl-4-oxo-6-(trifluoromethyl)imidazo[4,5-c]pyridin-2-yl]-5-ethylsulfanyl-3-pyridyl]cyclopropanecarboxamide] | ≥ 80 |  |  | ≥ 80 | ≥ 80 | ≥ 80 |  |  |  |  |  |  | ≥ 80
5 | CCS(=O)(=O)c1cc(Br)c(NC)nc1-c1nc2cc(C(F)(F)F)n(C3CC3)c(=O)c2n1C [Compound A52, 2-[5-bromo-3-ethylsulfonyl-6-(methylamino)-2-pyridyl]-5-cyclopropyl-3-methyl-6-(trifluoromethyl)imidazo[4,5-c]pyridin-4-one] | ≥ 80 | ≥ 80 |  | ≥ 80 | ≥ 80 | ≥ 80 |  |  |  | ≥ 80 | ≥ 80 | ≥ 80 | 

— patent US10730872B2, “Pesticidally active heterocyclic derivatives with sulphur containing sustitutents” (SYNGENTA PARTICIPATIONS AG, priority 2015, dated 2020)
